# Measurements as given in US20080069898A1, “Topical Compositions Comprising Myrica Gale Oil” (priority 2004, published 2008).
# Tested on: skin
# Test: 96 hour patch test of irritancy
# Settings: 0.3% w/v in sterile water
# Method: A 96 hour patch test was carried out to assess the irritancy or otherwise of Myrica gale oil when applied to the skin. For comparison, a solution of sodium dodecyl sulphate and white soft paraffin were also investigated.
smiles,measurement,value
"CCCCCCCCCCCCOS(=O)(=O)[O-].[Na+] [Sodium dodecyl sulphate (SDS), Sodium dodecyl sulphate]",Mean Dryness (D),0.72
same,Mean Erythema (E),4.54
same,Mean Irritation (E + D),5.26
